Measurements: article PMC12461739, “Multi-targeted azacoumarin–cyanocinnamate hybrids induce G2/M arrest and apoptosis via tubulin, and COX-2/VEGFR modulation: insights from in vitro mechanistic basis and in vivo validation” (RSC Medicinal Chemistry, 2025)
Where “and” joins values, the source holds several entries; their conditions need not be identical. Identical values can stand only once.

Columns and labels:
VEGFR-II = assay: Serum VEGFR-II ELISA
Experimental: All animals were maintained under conventional laboratory conditions, including a controlled temperature of 22 ± 2 °C and a 12 hour light/dark photoperiod, with continuous access to standard pellet chow and water. On day 11, following the final treatment, ascitic fluid was collected from the peritoneal cavity using heparinized syringes for EAC cell viability and count analysis. Blood samples were collected under light ether anesthesia via the retro-orbital venous plexus and centrifuged at 3000 rpm for 10 minutes. The resulting serum was separated and stored at −20 °C for biochemical analysis.
Serum VEGFR-2 levels were quantified using a rat VEGFR-2 ELISA kit (Cusabio®, China; Catalog No. CSB-E07348r), based on a quantitative sandwich enzyme immunoassay format. Samples were added to 96-well plates pre-coated with a monoclonal antibody specific for VEGFR-2 and incubated to enable antigen binding. After washing to remove unbound material, a biotin-conjugated detection antibody was added, followed by an avidin–HRP complex. The enzymatic reaction was developed using TMB substrate and stopped with an acidic solution. Absorbance was measured at 450 nm using a microplate reader. The VEGFR-2 concentrations in the samples were calculated using a standard curve fitted with a four-parameter logistic (4-PL) regression model and expressed in nanograms per milliliter (ng mL^−1).

MDA-MB 231 cells = assay: MTT antiproliferative assay, MDA-MB 231; type: cell-based, human; settings: Homo sapiens, MDA-MB-231, 48 h, MTT, 48 h treatment; read-out: IC50, antiproliferative activity toward MDA-MB 231
Experimental: The cytotoxic effects of the synthesized compounds were evaluated using the MTT assay. MCF-7, MDA-MB 231 (human breast cancer), and MCF-10A (non-tumorigenic breast epithelial) cells were seeded (1–3 × 10^4 cells per well) and incubated for 24 hours at 37 °C in a humidified atmosphere containing 5% CO2.[74] Following incubation, cells were treated with serial dilutions of the test compounds prepared in DMSO. The final concentration of DMSO in all wells, including controls, was maintained below 0.5% v/v to avoid solvent-related cytotoxicity. Doxorubicin was used as a positive control for comparison of antiproliferative activity. Following 48 hours of treatment, the culture medium was gently removed, and each well received 20 μL of MTT reagent (5 mg mL^−1 in phosphate-buffered saline). The plates were incubated at 37 °C for 4 hours to facilitate the enzymatic reduction of MTT into formazan by metabolically active cells. After incubation, the solution was discarded, and 100 μL of dimethyl sulfoxide was added. The absorbance of each well was measured at 570 nm using a microplate spectrophotometer. Cell viability was determined by comparing absorbance values to those of the untreated controls and expressed as a percentage. GraphPad Prism software was used to plot dose–response curves and calculate IC50 values.

α-tubulin = assay: Western blot of α-tubulin in MCF-7 cells; type: cell-based, human; settings: MCF-7, 7.653 μM (IC50)
Experimental: Cells were lysed in RIPA buffer (Thermo Scientific, Cat. #89900) containing protease and phosphatase inhibitors, and lysates were centrifuged at 12 000 × g for 15 min at 4 °C. Protein concentrations were determined using the BCA assay (Thermo Scientific, Cat. #23225), and equal amounts (20–50 μg) were mixed with 2× Laemmli sample buffer (Bio-Rad, Cat. #1610737) and denatured at 95 °C for 5 min. Proteins were separated on SDS-PAGE gels (8–10% for α-tubulin, 12% for β-actin; Bio-Rad TGX™, Cat. #456-9033) and transferred to PVDF membranes (Immobilon-P, Millipore, Cat. #IPVH00010) using a wet transfer system (100 V, 1 h, 4 °C). Membranes were blocked with 5% non-fat milk in TBST for 1 h at room temperature and incubated overnight at 4 °C with anti-α-tubulin (1 : 1000, Cell Signaling Technology, Cat. #3873) and anti-β-actin (1 : 5000, Sigma-Aldrich, Cat. #A5441) antibodies. After washing, membranes were incubated with HRP-conjugated secondary antibodies ([…], Cell Signaling Technology) for 1 h at room temperature. Protein bands were visualized using the SuperSignal™ West Pico/Femto ECL substrate (Thermo Scientific, Cat. #34095) and imaged with a Bio-Rad ChemiDoc system. Band intensities were quantified by densitometry using ImageJ software and normalized to β-actin levels.[82–84]

[1] = Acute toxicity and lethal dose determination; type: in vivo, Swiss albino mice; settings: mice, i.p., 48 hour observation
Experimental: In the first phase, animals were injected with low doses (1, 1.5, 2, 2.5, 3, 3.5, 4, 6, 8, and 10 mg kg^−1) and observed for 24 hours. Since no mortality was observed, a second set of animals was treated with higher doses (15, 25, 50, 75, 100, and 200 mg kg^−1), with continuous monitoring for 48 hours post-injection. Control animals received sterile saline solution only. All mice were carefully observed for signs of toxicity, behavioral changes (e.g., grooming, feeding, and locomotion), and mortality. The maximum tolerated dose (LD0) was defined as the highest dose at which no mortality or significant toxic symptoms were observed, while the lethal dose (LD100) was identified as the dose at which all animals succumbed. These values were used to establish safe dosing limits for subsequent in vivo pharmacological and biochemical experiments.

COX-2 = molecular target: T1, COX-2 (Homo sapiens, UniProt P35354); assay: COX-2 inhibitor screening (fluorometric); type: biochemical
T1 construct: purchased BioVision K547-100
T1 sequence (P35354 18-604): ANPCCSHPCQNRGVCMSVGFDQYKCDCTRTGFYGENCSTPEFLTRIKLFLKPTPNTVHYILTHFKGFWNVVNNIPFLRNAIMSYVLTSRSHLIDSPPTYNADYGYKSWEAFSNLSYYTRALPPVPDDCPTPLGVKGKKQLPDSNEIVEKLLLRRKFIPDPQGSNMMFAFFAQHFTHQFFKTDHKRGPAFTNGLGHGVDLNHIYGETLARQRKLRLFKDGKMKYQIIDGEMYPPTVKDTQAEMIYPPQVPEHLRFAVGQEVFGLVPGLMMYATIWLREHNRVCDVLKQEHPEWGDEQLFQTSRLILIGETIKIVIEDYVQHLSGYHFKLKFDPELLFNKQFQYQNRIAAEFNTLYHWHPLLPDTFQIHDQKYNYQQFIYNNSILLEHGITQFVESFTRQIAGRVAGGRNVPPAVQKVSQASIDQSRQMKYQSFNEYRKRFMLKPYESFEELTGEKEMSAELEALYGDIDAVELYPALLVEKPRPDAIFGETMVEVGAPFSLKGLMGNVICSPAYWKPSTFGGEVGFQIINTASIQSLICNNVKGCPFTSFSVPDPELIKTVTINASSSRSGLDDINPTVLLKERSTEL
Experimental: COX-1 and COX-2 enzymes were reconstituted in sterile water (110 μL) and kept on ice until use. Arachidonic acid was activated by mixing 5 μL with 5 μL of NaOH, followed by a 10-fold dilution with water and vortexing. A reaction mixture (80 μL per well) was prepared by combining 76 μL of assay buffer, 1 μL of COX probe, 2 μL of 200-fold diluted COX cofactor, and 1 μL of COX-1 or COX-2 enzyme. This mix was added to each well, followed by 10 μL of the prepared arachidonic acid/NaOH solution to initiate the reaction. Fluorescence was recorded at 25 °C using a microplate reader. The percent inhibition was determined by comparing the fluorescence increase in treated wells relative to the enzyme control. IC50 values were calculated from the concentration–response curves using GraphPad Prism.

[2] = Hepatic oxidative stress markers (GSH, CAT, SOD, MDA)
Experimental: All animals were maintained under conventional laboratory conditions, including a controlled temperature of 22 ± 2 °C and a 12 hour light/dark photoperiod, with continuous access to standard pellet chow and water. On day 11, following the final treatment, ascitic fluid was collected from the peritoneal cavity using heparinized syringes for EAC cell viability and count analysis. Blood samples were collected under light ether anesthesia via the retro-orbital venous plexus and centrifuged at 3000 rpm for 10 minutes. The resulting serum was separated and stored at −20 °C for biochemical analysis. Additionally, liver and kidney tissues were excised from each animal for further evaluation. Each organ was divided into two parts: one portion was rinsed with ice-cold phosphate-buffered saline (PBS, pH 7.4) and stored at −20 °C for preparation of tissue homogenates used in biochemical assays. The second portion was fixed in 10% neutral buffered formalin for histopathological examination to assess tissue morphology and damage.[96,97]
Liver tissues were homogenized in an appropriate lysis buffer and centrifuged to obtain the supernatant. Samples were loaded into ELISA plates pre-coated with catalase-specific antibodies and incubated at 37 °C. After washing steps, a biotinylated detection antibody and horseradish peroxidase (HRP)-conjugated secondary antibody were sequentially added. The reaction was developed using a tetramethylbenzidine (TMB) substrate and stopped with sulfuric acid. Absorbance was measured at 450 nm using a microplate reader, and results were expressed as units per gram of tissue (U g^−1 tissue). All samples were run in triplicate, and data were reported as mean ± SD.
The assay employed a double-antibody sandwich ELISA technique, where wells are pre-coated with MDA-specific monoclonal antibodies. Liver tissue homogenate samples were added to the wells and incubated to allow specific antigen–antibody binding. After washing, a biotin-labeled polyclonal detection antibody was added, followed by an avidin–HRP conjugate. The enzymatic reaction was developed using a TMB substrate, yielding a colorimetric change proportional to the MDA concentration. The reaction was stopped with acid, and absorbance was measured at 450 nm using a microplate reader. Results were expressed as nanomole per gram of tissue (nmol g^−1 tissue). All measurements were performed in triplicate, and results are presented as mean ± SD.
The assay employs a sandwich ELISA technique in which GSH in the samples binds to monoclonal antibodies pre-coated on microplate wells. Following this, an HRP-conjugated detection antibody was added, and the plate was incubated at 37 °C for 1 hour. After several washing steps to remove unbound reagents, a TMB substrate solution was added, allowing the enzymatic colorimetric reaction to develop. The reaction was stopped with an acidic solution, and absorbance was measured at 450 nm using a microplate reader. The resulting color intensity was directly proportional to the GSH concentration in the sample, and results were expressed as picogram per gram of tissue (pg g^−1 tissue). All samples were assayed in triplicate, and results are reported as mean ± SD.
The assay employed a sandwich ELISA format, in which SOD present in the tissue homogenates binds to a specific monoclonal antibody pre-coated on microplate wells. After sample incubation at 37 °C for 60 minutes, an HRP-conjugated secondary antibody was added. Following thorough washing, the enzymatic reaction was initiated with a TMB substrate and stopped with an acidic solution, resulting in a measurable color change. Absorbance was recorded at 450 nm using a microplate reader, and results were expressed as units per gram of tissue (U g^−1 tissue). All samples were run in triplicate, and data were reported as mean ± SD.

CCOC(=O)/C(C#N)=C/c1ccc(Oc2c(C)c3cc(Br)c(O)c(Br)c3[nH]c2=O)cc1 [Compound 7, ethyl (E)-2-cyano-3-(4-((6,8-dibromo-7-hydroxy-4-methyl-2-oxo-1,2-dihydroquinolin-3-yl)oxy)phenyl)acrylate]
serum VEGFR-II (VEGFR-II; EAC + compound 7 (10 mg kg^−1 i.p.), EAC control 85.61 ± 2.47): 30.66 ± 1.31 ng/mL | serum VEGFR-II (VEGFR-II; compound 7-only control group, no EAC, untreated 18.23 ± 0.81): 14.03 ± 0.45 ng/mL | IC50 (MDA-MB 231 cells): 9700 ± 1150 nM | reduction of α-tubulin protein expression vs untreated control (α-tubulin): 2.7 fold | MTD at 48 h ([1]; Swiss albino, mouse, in vivo, ip, read-out: maximum tolerated dose (LD0)): 100 mg/kg | approximate lethal dose (LD100) [1]: ~200 mg/kg | selectivity index (SI), COX-1/COX-2 (COX-2): 5.93 | IC50 (COX-2; read-out: IC50 toward COX-2): 1260 nM and 1300 nM | hepatic GSH ([2]; EAC + compound 7 (10 mg kg^−1 i.p.), EAC control 12.50 ± 0.55): 34.76 ± 1.71 pg g^−1 tissue | hepatic SOD ([2]; EAC + compound 7, EAC control 9.85 ± 0.53): 27.04 ± 0.70 U g^−1 tissue | hepatic CAT ([2]; EAC + compound 7, EAC control 11.71 ±1.42): 23.12 ± 1.09 U g^−1 tissue | hepatic MDA ([2]; EAC + compound 7, EAC control 53.57 ± 9.6): 17.04 ± 0.64 nmol g^−1 tissue | hepatic MDA ([2]; compound 7 control group, no EAC): 10.77 ± 0.70 nmol g^−1 tissue | hepatic GSH ([2]; compound 7 control group, no EAC, untreated 61.4 ± 2.99): 72.73 ± 1.37 pg g^−1 tissue | hepatic CAT ([2]; compound 7 control group, no EAC, untreated 65.23 ± 1.97): 60.88 ± 2.66 U g^−1 tissue | hepatic SOD ([2]; compound 7 control group, no EAC, untreated 77.56 ± 4.02): 77.05 ± 1.84 U g^−1 tissue
